Experimental data: patent publication US20150315202A1, “CHLORIN DERIVATIVE USEFUL IN PHOTODYNAMIC THERAPY AND DIAGNOSIS” (RMW CHO GROUP LIMITED, priority 2012, published 2015)
“Also recorded” adds a separate entry of the source.

How the values were obtained:
[1] = Absorption spectra of chlorin e4 sodium solutions; format: physicochemical; conditions: all solvents (ethanol, water, water + SDS)
Procedure: (§1) Absorption spectra were recorded using computerized spectrophotometers Hitachi 3400 (Japan) and SF-2000 (Russia). Fluorescence spectra were measured with a computerized spectrofluorimeter Perkin-Elmer MPF-44B. 10 mm wide quartz cuvettes were used for absorption and fluorescence measurements. Fluorescence was detected at a right angle to the excitation beam. The spectral bandwidth of the monochromator was 3 nm. […] The fluorescence quantum yields (ΦF) were determined using as a reference, solutions of TPPS (m-tetrakis(p-sulfonatophenyl)porphine) in ethanol. According to the literature, the most likely fluorescence quantum yield of TPPS in air-saturated water and ethanol is equal to 0.08 (K. Kalyanasundaram and M. Neumann-Spallart, Photophysical and redox properties of water soluble porphyrins in aqueous media, J. Phys. Chem., 1982, 86, 5163-5169; and A. T. Gradyushko, A. N. Sevchenko, K. N. Solovyov and M. P. Tsvirko, Energetics of photophysical processes in chlorophyll-like molecules, Photochem. Photobiol., 1970, 11, 387-400). The fluorescence of the samples was excited by the monochromatic light corresponding to the maximum of the Soret bands: 415 nm for TPPS in ethanol and 413 nm for TPPS in water, and 403 nm for chlorin e4 sodium in water and ethanol. The monochromator bandwidth was 3 nm. The fluorescence quantum yields (ΦF) were calculated using the following equation: […]

[2] = Fluorescence spectra and fluorescence quantum yield (reference TPPS); format: physicochemical
Procedure: as §1
where (ΦTPP is the quantum yield of TPPS fluorescence, Sc is the square under the fluorescence spectrum of the chlorin e4 sodium sample, STPP is the square under the fluorescence spectrum of TPPS, and Dc and DTPP are absorbance (optical density) of the chlorin e4 sodium and TPPS respectively at the excitation wavelengths. The obtained results were collated using relative units of intensity of the excited light at the excitation wavelengths. The intensities of the monochromatic light were measured using a calibrated silicon detector from Optical Power Meter System ThorLabs (Karlsfeld, Germany).

[3] = system: naso pharyngeal carcinoma with extension to a lymph node in the left neck; experiment: In vivo studies Example 2: patient, oral chlorin e4 sodium plus laser and LED light; set-up: species or system human
Procedure: A patient with naso pharyngeal carcinoma with extension to a lymph node in the left neck, was treated successfully. The treatment consisted of three courses. For each course, five doses of 62.5-187.5 mg chlorin e4 sodium were administered orally over the course of eight days. 24-48 hours after each oral dose of chlorin e4 sodium, the patient was treated with laser and LED light having a wavelength of 660 nm and 760 nm.
Subsequently the patient was treated with a further course. Again, for the course, five doses of 62.5-187.5 mg chlorin e4 sodium were administered orally over the course of eight days. 24-48 hours after each oral dose of chlorin e4 sodium, the patient was treated with laser and LED light having a wavelength of 660 nm and 760 nm.

lung cancer [4] = experiment: In vivo studies Example 5: patient, oral chlorin e4 sodium plus laser and LED light; set-up: species or system human; conditions: three months after one course
Procedure: A patient with lung cancer was treated successfully. The treatment consisted of one course of five doses of 62.5-187.5 mg chlorin e4 sodium administered orally over the course of eight days. 24-48 hours after each oral dose of chlorin e4 sodium, the patient was treated with laser and LED light having a wavelength of 660 nm and 760 nm.

lung cancer [5] = experiment: In vivo studies Example 6: patient, oral chlorin e4 sodium plus laser and LED light; set-up: species or system human; conditions: immediately after the last of three courses
Procedure: A patient with lung cancer was treated successfully. The treatment consisted of three courses. For each course, five doses of 62.5-187.5 mg chlorin e4 sodium were administered orally over the course of eight days. 24-48 hours after each oral dose of chlorin e4 sodium, the patient was treated with laser and LED light having a wavelength of 660 nm and 760 nm.

[6] = system: advanced pancreatic cancer with metastases in the liver; experiment: In vivo studies Example 7: patient, oral chlorin e4 sodium plus laser and LED light; set-up: species or system human
Procedure: A patient with advanced pancreatic cancer with metastases in the liver, was treated successfully. Prior to treatment the patient was in poor health generally and suffering from extreme weight loss, pain and other typical symptoms of advanced pancreatic cancer. The treatment consisted of three courses. For each course, five doses of 62.5-187.5 mg chlorin e4 sodium were administered orally over the course of eight days. About 24 hours after each oral dose of chlorin e4 sodium, the patient was treated with laser and LED light having a wavelength of 660 nm and 760 nm.

[7] = system: naso pharyngeal carcinoma with metastases in the lymph nodes of the left neck and in the lung; experiment: In vivo studies Example 10: patient, oral chlorin e4 sodium plus laser and LED light; set-up: species or system human
Procedure: A patient with naso pharyngeal carcinoma with metastases in the lymph nodes of the left neck and in the lung, was treated successfully. The treatment consisted of five courses. For each course, five doses of 62.5-187.5 mg chlorin e4 sodium were administered orally over the course of eight days. 24-48 hours after each oral dose of chlorin e4 sodium, the patient was treated with laser and LED light having a wavelength of 660 nm and 760 nm. Additionally an interstitial light treatment using a fine needle was performed on the left lung to a tumour that was large in size with an optical fibre laser having a wavelength of 660 nm and 760 nm.

[8] = system: lung cancer with metastases in the lymph nodes and sacrum bone; experiment: In vivo studies Example 11: patient, oral chlorin e4 sodium plus laser and LED light; set-up: species or system human
Procedure: A patient with lung cancer with metastases in the lymph nodes and sacrum bone, was treated successfully. […] The treatment consisted of five courses. For each course, five doses of 62.5-187.5 mg chlorin e4 sodium were administered orally over the course of eight days. 24-48 hours after each oral dose of chlorin e4 sodium, the patient was treated with laser and LED light having a wavelength of 660 nm and 760 nm. Additionally, for two of the treatment courses, an interstitial light treatment using a fine needle was performed on the sacrum bone with an optical fibre laser having a wavelength of 660 nm and 760 nm. Additionally, mesothelium bone growth therapy was administered for the last two treatment courses.

[9] = system: brain cancer with metastases in the lung and lymph nodes; experiment: In vivo studies Example 12: patient, oral chlorin e4 sodium plus laser and LED light; set-up: species or system human; conditions: after two courses
Procedure: A patient with brain cancer with metastases in the lung and lymph nodes, was treated successfully. […] The patient experienced occasional epileptic seizures and severe headaches. The treatment consisted of two courses. For each course, five doses of 62.5-187.5 mg chlorin e4 sodium were administered orally over the course of eight days. 24-48 hours after each oral dose of chlorin e4 sodium, the patient was treated with laser and LED light having a wavelength of 660 nm and 760 nm.

## C=Cc1c(C)c2cc3nc(c(C)c4[nH]c(cc5nc(cc1[nH]2)C(C)=C5CC)c(C)c4C(=O)O)[C@@H](CCC(=O)O)[C@@H]3C [chlorin e4 sodium]
[1]
  Aggregation state from absorption spectra: mostly monomeric
[2]; SDS containing water
  Fluorescence quantum yield (ranking among solvents): slightly less
[2]; ethanol
  Fluorescence quantum yield (ranking among solvents): highest
[2]; water without SDS
  Fluorescence quantum yield (ranking among solvents): smallest; also recorded: still high
[3]; after the final (fourth) treatment course
  Response (ultrasound images and biopsies): complete response
[3]; immediately following three courses, confirmed ten months after treatment
  Biopsy of the treated lymph node of the neck: no cancer cells were detected
[3]; one month before and ten months after treatment
  Comparison of CT scans: no spread of tumours and that the size of the tumours was reduced
[3]; two years and six months after starting, five months after completion of treatment
  Patient status: alive and well
Lung cancer [4]
  CT scan finding: tumour breakdown
Lung cancer [5]
  CT scan finding: complete recovery from lung cancer
[6]; before and after three courses
  Response in the pancreatic area (PET/CT): improvements and a good treatment response
[6]; three courses
  Pain: suffered less pain
  Photosensitive reaction: no photosensitive reaction
[7]; five courses, interstitial light on left lung
  Response (PET/CT): very good treatment response
[7]; one year and five months after starting, two months after completion of treatment
  Patient status: alive and well
[8]; 10 months after starting, four months after completion of treatment
  Patient status: alive and well
[8]; five courses, interstitial light on sacrum bone, mesothelium bone growth therapy for last two courses
  Response (PET/CT): complete response
[9]
  Lymph nodes (PET/CT): not yet clear
  Metabolic activity in the area of the brain tumour (PET/CT): no metabolic activity
  Response in the lungs (PET/CT): complete response
